Reference: patent US5234936A, “Pyrimidocycloalkanes as a II antagonists” (American Home Products Corporation, priority 1991, dated 1993)

Test system: A II-infused rat
Experiment: antihypertensive action in A II-infused rat model
Format: in vivo
Method: In accordance with their ability to antagonize angiotensin II, the compounds of this invention show antihypertensive action in the following A II-infused rat model. Rats are anesthetized with Dial-Urethane (0.60 mL/kg, ip) and the trachea cannulated with PE 240. Either one femoral artery and both femoral veins or the carotid artery and the corresponding jugular vein are cannulated with PE 50. If the jugular vein is cannulated, two cannulas are placed in the one vein. The initial portion of the duodenum (just distal to the stomach) is cannulated with PE 50 via a small midline incision. Arterial pressure and heart rate are measured from the arterial cannula. Ten to 15 min are allowed following surgery for stabilization of arterial pressure. Ganglion blockade is then produced by intravenous administration of mecamylamine at 3 mg/kg (1 mL/kg of a 3 mg/mL solution). Ganglion blockade causes a fall in arterial pressure of about 50 mmHg. Mecamylamine is given every 90 min throughout the remainder of the experiment. An A II infusion is then begun into the other venous cannula at 0.25 μg/kg/min (at 9.6 μL/min). The A II infusion returns arterial pressure to or slightly above the control level. Once arterial pressure has stabilized with the A II infusion, baseline values for means arterial pressure (MAP) and heart rate are taken. […]

Compound | average lowering of the A II dependent blood pressure (3 mg/kg id (intraduodenal), one half hour postadministration, ganglion-blocked A II-infused rats) | fall in arterial pressure on ganglion blockade (mecamylamine 3 mg/kg intravenous, before A II infusion, anesthetized rats)
FC(F)(F)c1nc2c(c(NCc3ccc(-c4ccccc4-c4nnn[nH]4)cc3)n1)CCCCC2.O.[K] [Example 5, 6,7,8,9-tetrahydro-N-[[2'-(1H-tetrazol-5-yl)[1,1'-biphenyl]-4-yl]methyl]-2-(trifluoromethyl)-5H-cycloheptapyrimidin-4-amine potassium salt hydrate] | 45% | –
CNC1(C)C2CCC(C2)C1(C)C (centres unmarked) [mecamylamine] | – | about 50 mmHg
